Experimental data as given in patent publication US3941795A, “α-ARYL-4-SUBSTITUTED PIPERIDINOALKANOL DERIVATIVES” (Richardson-Merrell Inc., priority 1974, dated 1976).

System: wheals induced by intradermal injections on 1γ of histamine
Experiment: reduction by 50% of wheals induced by intradermal injections of histamine into guinea pigs (antihistamine)
Assay type: in vivo
Conditions: Cavia porcellus, po, 1 h, orally administered one hour prior to the histamine injection, 1γ of histamine intradermal, read-out: ED50 (amount required to reduce by 50% wheals induced by intradermal injections of histamine)
Text: To illustrate the utility of the compounds of this invention the following tabulation indicates the amount of certain representative compounds of this invention required to reduce by 50% wheals induced by intradermal injections on 1γ of histamine into guinea pigs. Each compound was orally administered one hour prior to the histamine injection.

Structure (SMILES) | ED50
CC(C)(C)c1ccc(C(O)CCCN2CCC(C(O)(c3ccccc3)C3CCCCC3)CC2)cc1.Cl (stereo not drawn) [4-(α-cyclohexyl-α-hydroxybenzyl)-α-(p-tert-butylphenyl)-1-piperidinebutanol hydrochloride] | 12 mg/kg
COc1ccccc1C(=C1CCN(CCCC(O)c2ccc(C(C)(C)C)cc2)CC1)c1ccccc1 (stereo not drawn) [4-[4-[α-(o-Anisyl)benzylidene]-α-(p-tert-butylphenyl)-1-piperidinebutanol]] | 4.4 mg/kg
